Experimental data as given in patent publication US20210393588A1, “READY TO USE I[…] OF BR[…] SALT THEREOF” (Zenvision Pharma LLP, priority 2018, published 2021).
Like-named read-outs stand apart in the source and are kept apart here.

Experiments:
[1] = Storage stability of aqueous solutions of Brivaracetam; type: physicochemical; conditions: aqueous solution
Source text: Also degradation products in solution are formed due to oxidation, pH ranges.

[2] = cited from earlier work

SMILES: CCC[C@@H]1CC(=O)N([C@@H](CC)C(N)=O)C1 [Brivaracetam, (2S)-2-[(4R)-2-oxo-4-propyltetrahydro-1H-pyrrol-1-yl]butanamide]
- Stability during storage [1]: partially unstable
- Solubility ([2]; acetone): freely soluble
- Solubility ([2]; acetonitrile): freely soluble
- Solubility ([2]; buffer (pH 1.2, 4.5, and 7.4)): very soluble
- Solubility ([2]; ethanol): very soluble
- Solubility ([2]; glacial acetic acid): very soluble
- Solubility ([2]; methanol): very soluble
- Solubility ([2]; n-hexane): very slightly soluble
- Solubility ([2]; toluene): soluble
- Solubility ([2]; water): very soluble
